Measurements taken from PMC5218480 (PLoS ONE, 2017).

Test system: MV-4-11 cells
Assay: Gene expression microarray analysis (Affymetrix PrimeView) and GSEA
Assay type: cell-based, human
Parameters: RFU PODN (11730768_x_at) / Fold change /veh PODN (11730768_x_at) / RFU LINC00158 (11744669_a_at) / Fold change /veh LINC00158 (11744669_a_at) / RFU DUSP10 (11751237_a_at) / Fold change /veh DUSP10 (11751237_a_at) / RFU ID3 (11757404_x_at) / Fold change /veh ID3 (11757404_x_at) / RFU PLEKHG5 (11737974_s_at) / Fold change /veh PLEKHG5 (11737974_s_at) / RFU LRRC4B (11730491_at) / Fold change /veh LRRC4B (11730491_at) / RFU GIMAP4 (11747438_a_at) / Fold change /veh GIMAP4 (11747438_a_at) / RFU KRT8 (11758183_x_at) / Fold change /veh KRT8 (11758183_x_at) / RFU CNN1 (11734310_a_at) / Fold change /veh CNN1 (11734310_a_at) / RFU VPS37D (11726825_at) / Fold change /veh VPS37D (11726825_at) / RFU C10orf10 (11716522_x_at) / Fold change /veh C10orf10 (11716522_x_at) / RFU KIR2DL2 /// KIR2DL4 /// KIR2DL5A /// KIR2DL5B /// KIR2DS1 /// KIR2DS2 /// KIR2DS3 /// KIR2DS4 /// KIR3DL3 /// KIR3DL3 /// KIR3DS1 (11738374_at) / Fold change /veh KIR2DL2 /// KIR2DL4 /// KIR2DL5A /// KIR2DL5B /// KIR2DS1 /// KIR2DS2 /// KIR2DS3 /// KIR2DS4 /// KIR3DL3 /// KIR3DL3 /// KIR3DS1 (11738374_at) / RFU C1QL1 (11718748_at) / Fold change /veh C1QL1 (11718748_at) / RFU TMPRSS4 (11747572_a_at) / Fold change /veh TMPRSS4 (11747572_a_at) / RFU HAMP (11756126_x_at) / Fold change /veh HAMP (11756126_x_at) / RFU RNFT2 (11725882_a_at) / Fold change /veh RNFT2 (11725882_a_at) / RFU NR4A2 (11747474_a_at) / Fold change /veh NR4A2 (11747474_a_at) / RFU ABCC12 (11746883_a_at) / Fold change /veh ABCC12 (11746883_a_at) / RFU TMEM136 (11760407_x_at) / Fold change /veh TMEM136 (11760407_x_at) / RFU CLDN22 /// WWC2 (11732394_at) / Fold change /veh CLDN22 /// WWC2 (11732394_at) / RFU HLA-DPB1 (11760878_x_at) / Fold change /veh HLA-DPB1 (11760878_x_at) / RFU SPINT1 (11716480_a_at) / Fold change /veh SPINT1 (11716480_a_at) / RFU GAP43 (11754022_s_at) / Fold change /veh GAP43 (11754022_s_at) / RFU A4GNT (11735810_at) / Fold change /veh A4GNT (11735810_at) / RFU PRB3 (11715151_x_at) / Fold change /veh PRB3 (11715151_x_at) / RFU TUBB4B (11761932_at) / Fold change /veh TUBB4B (11761932_at) / RFU CAPN14 (11732068_a_at) / Fold change /veh CAPN14 (11732068_a_at) / RFU TMCC2 (11721928_a_at) / Fold change /veh TMCC2 (11721928_a_at) / RFU IRGQ (11745062_a_at) / Fold change /veh IRGQ (11745062_a_at) / RFU FAM174B (11720279_a_at) / Fold change /veh FAM174B (11720279_a_at) / RFU TMPRSS4 (11748680_a_at) / Fold change /veh TMPRSS4 (11748680_a_at) / RFU FAM212B (11763350_a_at) / Fold change /veh FAM212B (11763350_a_at) / RFU PLEKHG5 (11743358_a_at) / Fold change /veh PLEKHG5 (11743358_a_at) / RFU ZSCAN30 (11745921_a_at) / Fold change /veh ZSCAN30 (11745921_a_at) / RFU CMKLR1 (11741424_a_at) / Fold change /veh CMKLR1 (11741424_a_at) / RFU LOC101060620 /// MAPK8IP1 (11723275_at) / Fold change /veh LOC101060620 /// MAPK8IP1 (11723275_at) / RFU SPTSSB (11747773_x_at) / Fold change /veh SPTSSB (11747773_x_at) / RFU PRSS12 (11739890_at) / Fold change /veh PRSS12 (11739890_at) / RFU BIN1 (11741810_x_at) / Fold change /veh BIN1 (11741810_x_at) / RFU WNT11 (11732464_a_at) / Fold change /veh WNT11 (11732464_a_at) / RFU C10orf10 (11716521_a_at) / Fold change /veh C10orf10 (11716521_a_at) / RFU C5orf56 (11738089_at) / Fold change /veh C5orf56 (11738089_at) / RFU CYB561 (11721691_x_at) / Fold change /veh CYB561 (11721691_x_at) / RFU ANKRD19P (11752326_a_at) / Fold change /veh ANKRD19P (11752326_a_at) / RFU OR2T12 /// OR2T33 /// OR2T8 (11738714_s_at) / Fold change /veh OR2T12 /// OR2T33 /// OR2T8 (11738714_s_at) / RFU VCAN (11748164_a_at) / Fold change /veh VCAN (11748164_a_at) / RFU JSRP1 (11732532_at) / Fold change /veh JSRP1 (11732532_at) / RFU KRTAP10-11 (11738290_x_at) / Fold change /veh KRTAP10-11 (11738290_x_at) / RFU MYO3A (11730013_a_at) / Fold change /veh MYO3A (11730013_a_at) / RFU EBF3 (11725865_a_at) / Fold change /veh EBF3 (11725865_a_at) / RFU CAMK2N1 (11719241_x_at) / Fold change /veh CAMK2N1 (11719241_x_at) / RFU C5orf56 (11738088_a_at) / Fold change /veh C5orf56 (11738088_a_at) / RFU OLFML3 (11715873_a_at) / Fold change /veh OLFML3 (11715873_a_at) / RFU LOC100653217 /// NTM (11731650_a_at) / Fold change /veh LOC100653217 /// NTM (11731650_a_at) / RFU MAPK11 (11762145_a_at) / Fold change /veh MAPK11 (11762145_a_at) / RFU FIZ1 (11724087_x_at) / Fold change /veh FIZ1 (11724087_x_at) / RFU OASL (11726364_x_at) / Fold change /veh OASL (11726364_x_at) / RFU SOX15 (11748057_x_at) / Fold change /veh SOX15 (11748057_x_at) / RFU CD79A (11719716_a_at) / Fold change /veh CD79A (11719716_a_at) / RFU HIST1H1D (11736915_at) / Fold change /veh HIST1H1D (11736915_at) / RFU CASKIN2 (11723855_a_at) / Fold change /veh CASKIN2 (11723855_a_at) / RFU LOC730098 (11760151_x_at) / Fold change /veh LOC730098 (11760151_x_at) / RFU OR4N2 (11742367_at) / Fold change /veh OR4N2 (11742367_at) / RFU PRRT2 (11749266_a_at) / Fold change /veh PRRT2 (11749266_a_at) / RFU SNX32 (11753110_a_at) / Fold change /veh SNX32 (11753110_a_at) / RFU CDHR5 (11726645_a_at) / Fold change /veh CDHR5 (11726645_a_at) / RFU RCAN1 (11760418_a_at) / Fold change /veh RCAN1 (11760418_a_at) / RFU FAM167A (11723789_a_at) / Fold change /veh FAM167A (11723789_a_at) / RFU FAM26E (11764081_at) / Fold change /veh FAM26E (11764081_at) / RFU ISYNA1 (11749810_s_at) / Fold change /veh ISYNA1 (11749810_s_at) / RFU ACY1 (11761880_at) / Fold change /veh ACY1 (11761880_at) / RFU 11764098_at / Fold change /veh 11764098_at / RFU SAMD14 (11745864_x_at) / Fold change /veh SAMD14 (11745864_x_at) / RFU NPB (11741838_a_at) / Fold change /veh NPB (11741838_a_at) / RFU TMPRSS6 (11731388_a_at) / Fold change /veh TMPRSS6 (11731388_a_at) / RFU KRTAP10-2 (11738614_at) / Fold change /veh KRTAP10-2 (11738614_at) / RFU ARHGAP8 /// PRR5-ARHGAP8 (11727945_x_at) / Fold change /veh ARHGAP8 /// PRR5-ARHGAP8 (11727945_x_at) / RFU KRTAP5-7 /// NADSYN1 (11734609_at) / Fold change /veh KRTAP5-7 /// NADSYN1 (11734609_at) / RFU RASL12 (11751679_a_at) / Fold change /veh RASL12 (11751679_a_at) / RFU CDKN2B (11736163_a_at) / Fold change /veh CDKN2B (11736163_a_at) / RFU PRF1 (11729649_at) / Fold change /veh PRF1 (11729649_at) / RFU, ZNF638 /// ZNF638-IT1 / Fold change vs veh, ZNF638 /// ZNF638-IT1 / RFU, PANK3 / Fold change vs veh, PANK3 / RFU, SH3YL1 / Fold change vs veh, SH3YL1 / RFU, ZEB2 / Fold change vs veh, ZEB2 / RFU, NRIP1 / Fold change vs veh, NRIP1 / RFU, PTTG1IP / Fold change vs veh, PTTG1IP / RFU, CAPN2 / Fold change vs veh, CAPN2 / RFU, MED14 / Fold change vs veh, MED14 / RFU, SNORA58 / Fold change vs veh, SNORA58 / RFU, C1orf63 / Fold change vs veh, C1orf63 / RFU, LRRFIP1 / Fold change vs veh, LRRFIP1 / RFU, NDUFAF7 / Fold change vs veh, NDUFAF7 / RFU, SLC12A2 / Fold change vs veh, SLC12A2 / RFU, IBTK / Fold change vs veh, IBTK / RFU, ESF1 / Fold change vs veh, ESF1 / Fold change vs veh, TMEM50B / RFU, TAOK1 / Fold change vs veh, TAOK1 / RFU, ACBD3 / Fold change vs veh, ACBD3 / RFU, TMA16 / Fold change vs veh, TMA16 / RFU, RWDD3 / Fold change vs veh, RWDD3 / RFU, BCAT1 / Fold change vs veh, BCAT1 / RFU, EDEM3 / Fold change vs veh, EDEM3 / RFU, TMEM33 / Fold change vs veh, TMEM33 / RFU, WDR75 / Fold change vs veh, WDR75 / RFU, AHCTF1 / Fold change vs veh, AHCTF1 / RFU, TFRC / Fold change vs veh, TFRC / RFU, ZDHHC17 / Fold change vs veh, ZDHHC17 / RFU, NOM1 / Fold change vs veh, NOM1 / RFU, ARL8B / Fold change vs veh, ARL8B / RFU, ZBTB11 / Fold change vs veh, ZBTB11 / RFU, TAMM41 / Fold change vs veh, TAMM41 / RFU, KIAA1704 /// LOC100996395 / Fold change vs veh, KIAA1704 /// LOC100996395 / RFU, ING1 / Fold change vs veh, ING1 / RFU, TRMT61B / Fold change vs veh, TRMT61B / RFU, FUBP3 / Fold change vs veh, FUBP3 / RFU, TP53 / Fold change vs veh, TP53 / RFU, TNKS2 / Fold change vs veh, TNKS2 / RFU, ZFP14 / Fold change vs veh, ZFP14 / RFU, ACTR2 / Fold change vs veh, ACTR2 / RFU, PPP3R1 / Fold change vs veh, PPP3R1 / RFU, PIK3R1 / Fold change vs veh, PIK3R1 / RFU, HNRNPA1 / Fold change vs veh, HNRNPA1 / RFU, RNF170 / Fold change vs veh, RNF170 / RFU, ZNF28 / Fold change vs veh, ZNF28 / RFU, RNGTT / Fold change vs veh, RNGTT / RFU, OGT / Fold change vs veh, OGT / RFU, BRD1 / Fold change vs veh, BRD1 / RFU, MARS / Fold change vs veh, MARS / RFU, ZNF655 / Fold change vs veh, ZNF655 / RFU, FAHD1 / Fold change vs veh, FAHD1 / RFU, BDP1 / Fold change vs veh, BDP1 / RFU, LRRCC1 / Fold change vs veh, LRRCC1 / RFU, ARID1A / Fold change vs veh, ARID1A / RFU, ZNF146 / Fold change vs veh, ZNF146 / RFU, ZNF330 / Fold change vs veh, ZNF330 / RFU, GPN3 / Fold change vs veh, GPN3 / RFU, C9orf123 / Fold change vs veh, C9orf123 / RFU, N4BP2L2 / Fold change vs veh, N4BP2L2 / RFU, ARFIP1 / Fold change vs veh, ARFIP1 / RFU, FAM179B / Fold change vs veh, FAM179B / RFU, BCL10 / Fold change vs veh, BCL10 / RFU, UHRF1BP1L / Fold change vs veh, UHRF1BP1L / RFU, BET1 / Fold change vs veh, BET1 / RFU, CNOT2 / Fold change vs veh, CNOT2 / RFU, ZNF268 / Fold change vs veh, ZNF268 / Fold change vs veh, ZNF507 / RFU, DGCR2 / Fold change vs veh, DGCR2 / RFU, WDSUB1 / Fold change vs veh, WDSUB1 / Fold change vs veh, HSP90B1 /// MIR3652 / RFU, ADSS / Fold change vs veh, ADSS / RFU, GK / Fold change vs veh, GK / RFU, ZNF148 / Fold change vs veh, ZNF148 / RFU, TAF9 / Fold change vs veh, TAF9 / RFU, SLC1A5 / Fold change vs veh, SLC1A5 / RFU, SLMO2 / Fold change vs veh, SLMO2 / RFU, ABCC4 / Fold change vs veh, ABCC4 / RFU, LOC101060439 /// RAP1B / Fold change vs veh, LOC101060439 /// RAP1B / RFU, RFX7 / Fold change vs veh, RFX7 / RFU, GTPBP10 / Fold change vs veh, GTPBP10 / RFU, CNEP1R1 / Fold change vs veh, CNEP1R1 / RFU, BIVM-ERCC5 /// ERCC5 / Fold change vs veh, BIVM-ERCC5 /// ERCC5 / RFU, ILF3 / Fold change vs veh, ILF3 / RFU 11762660_at / Fold change /veh 11762660_at / RFU VCAN (11757783_s_at) / Fold change /veh VCAN (11757783_s_at) / RFU DDX43 (11728927_at) / Fold change /veh DDX43 (11728927_at) / RFU KRT8 (11758188_x_at) / Fold change /veh KRT8 (11758188_x_at) / RFU NKD1 (11759106_at) / Fold change /veh NKD1 (11759106_at) / RFU SRD5A1 (11742802_a_at) / Fold change /veh SRD5A1 (11742802_a_at) / RFU TPSAB1 /// TPSB2 (11721975_s_at) / Fold change /veh TPSAB1 /// TPSB2 (11721975_s_at) / RFU GSTM3 (11746129_a_at) / Fold change /veh GSTM3 (11746129_a_at) / RFU IL23R (11737362_x_at) / Fold change /veh IL23R (11737362_x_at) / RFU TMEM51 (11727254_a_at) / Fold change /veh TMEM51 (11727254_a_at) / RFU PIWIL2 (11732686_x_at) / Fold change /veh PIWIL2 (11732686_x_at) / RFU ORM1 (11744905_x_at) / Fold change /veh ORM1 (11744905_x_at) / RFU CCDC152 (11743942_at) / Fold change /veh CCDC152 (11743942_at) / RFU ECM1 (11717891_a_at) / Fold change /veh ECM1 (11717891_a_at) / RFU IL23R (11748794_a_at) / Fold change /veh IL23R (11748794_a_at) / RFU TNFAIP8L3 (11732012_x_at) / Fold change /veh TNFAIP8L3 (11732012_x_at) / RFU MBOAT4 (11741988_at) / Fold change /veh MBOAT4 (11741988_at) / RFU 11764193_at / Fold change /veh 11764193_at / RFU TMEM53 (11763286_at) / Fold change /veh TMEM53 (11763286_at) / RFU MAGEB2 (11727129_at) / Fold change /veh MAGEB2 (11727129_at) / RFU TMEM200A (11744735_a_at) / Fold change /veh TMEM200A (11744735_a_at) / RFU CCDC152 (11751479_a_at) / Fold change /veh CCDC152 (11751479_a_at) / RFU FAM211A (11726209_a_at) / Fold change /veh FAM211A (11726209_a_at) / RFU RGS16 (11746705_a_at) / Fold change /veh RGS16 (11746705_a_at) / RFU VCAN (11755009_s_at) / Fold change /veh VCAN (11755009_s_at) / RFU RHOB (11743442_s_at) / Fold change /veh RHOB (11743442_s_at) / RFU RGS16 (11720943_a_at) / Fold change /veh RGS16 (11720943_a_at) / RFU RGS16 (11720944_at) / Fold change /veh RGS16 (11720944_at) / RFU, VPS4B / Fold change vs veh, VPS4B / RFU, CREB1 / Fold change vs veh, CREB1 / RFU, DNAJC13 / Fold change vs veh, DNAJC13 / RFU, GNAQ / Fold change vs veh, GNAQ / RFU, CDK5R1 / Fold change vs veh, CDK5R1 / RFU, ZRANB3 / Fold change vs veh, ZRANB3 / RFU, CUL4A / Fold change vs veh, CUL4A / RFU, CCNY / Fold change vs veh, CCNY / RFU, UFL1 / Fold change vs veh, UFL1 / RFU, COG3 / Fold change vs veh, COG3 / RFU, DIAPH2 / Fold change vs veh, DIAPH2 / RFU, SKA2 / Fold change vs veh, SKA2 / RFU, AFF3 / Fold change vs veh, AFF3 / RFU, LMF1 / Fold change vs veh, LMF1 / RFU, IPO11 / Fold change vs veh, IPO11 / RFU, DFFB / Fold change vs veh, DFFB / RFU, FOXP1 / Fold change vs veh, FOXP1 / RFU, CARD8 / Fold change vs veh, CARD8 / RFU, STRN3 / Fold change vs veh, STRN3 / RFU, ADK / Fold change vs veh, ADK / RFU, RASSF2 / Fold change vs veh, RASSF2 / RFU, WIPF1 / Fold change vs veh, WIPF1 / RFU, LARP1B / Fold change vs veh, LARP1B / RFU, RASA1 / Fold change vs veh, RASA1 / RFU, RB1 / Fold change vs veh, RB1 / RFU, PPFIA1 / Fold change vs veh, PPFIA1 / RFU, MAT2A / Fold change vs veh, MAT2A / RFU, CCT5 / Fold change vs veh, CCT5 / RFU, WDR92 / Fold change vs veh, WDR92 / RFU, CUX1 / Fold change vs veh, CUX1 / RFU, TTC7A / Fold change vs veh, TTC7A / RFU, TMEM135 / Fold change vs veh, TMEM135 / RFU, DEPTOR / Fold change vs veh, DEPTOR / RFU, CPM / Fold change vs veh, CPM / RFU, DNAJB6 / Fold change vs veh, DNAJB6 / RFU, CACNA2D3 / Fold change vs veh, CACNA2D3 / RFU, DTX4 / Fold change vs veh, DTX4 / RFU, TFCP2 / Fold change vs veh, TFCP2 / RFU, GMCL1 /// GMCL1P1 / Fold change vs veh, GMCL1 /// GMCL1P1 / RFU, AEBP2 / Fold change vs veh, AEBP2 / RFU, SNHG1 /// SNORD22 /// SNORD25 /// SNORD26 /// SNORD27 /// SNORD28 /// SNORD29 /// SNORD31 / Fold change vs veh, SNHG1 /// SNORD22 /// SNORD25 /// SNORD26 /// SNORD27 /// SNORD28 /// SNORD29 /// SNORD31 / Fold change (Aza/veh), C12orf56 (ProbeSet 11735607_a_at) / Fold change (ACY-1035/veh), C12orf56 (ProbeSet 11735607_a_at) / Fold change (Aza/veh), FGFR1OP (ProbeSet 11751329_s_at) / Fold change (ACY-1035/veh), FGFR1OP (ProbeSet 11751329_s_at) / Fold change (Aza/veh), VPS36 (ProbeSet 11739960_a_at) / Fold change (ACY-1035/veh), VPS36 (ProbeSet 11739960_a_at) / RFU SYPL1 (11715823_x_at) / Fold change /veh SYPL1 (11715823_x_at) / RFU IGFBP7 (11715501_s_at) / Fold change /veh IGFBP7 (11715501_s_at) / RFU REEP3 (11722064_at) / Fold change /veh REEP3 (11722064_at) / RFU IGLL1 (11728026_x_at) / Fold change /veh IGLL1 (11728026_x_at): dose or concentration left out as unconfirmed
Conditions: MV-4-11 cells, 48 hours

SMILES: Nc1ccc(-c2cccs2)cc1NC(=O)c1ccc2c(c1)cc(C1CC1)n2CCN1CCOCC1 [ACY-1035]
- Fold change /veh MYO3A (11730013_a_at): 1.10
